Data as given in patent publication US8722923B2, “Conjugates for treating neurodegenerative diseases and disorders” (Ramot at Tel-Aviv University Ltd., priority 2008, dated 2014).

Experiments:
[1] = test system: MPTP-Induced Parkinson's Disease Model in Mice; assay: Example 2: MPTP acute toxicity model, tyrosine hydroxylase immunoreactive cells in the SNpc; type: in vivo, mice strain C57/bl; conditions: day 7, MPTP 4 x 20 mg/kg IP day 0, S.C once daily days 0-7, 40 mg/kg L-DOPA or equimolar
Protocol: Mice were administered 4 injections IP of MPTP (each injection contained 20 mg/kg, 5 ml/kg) or saline alone (control) at 2 hours intervals on day 0. Mice were then administered subcutaneously test solutions (TI) (either saline, L-DOPA or BL-1023) once daily throughout the 8 successive treatment days (days 0-7). On day 7, the mice were sacrificed and their brains were removed for immunohistochemistry analysis of the number of tyrosine hyroxylase immunostained cells at the level of the Substantia Nigra (SNpc).
Young adult (7-8 weeks old) male mice strain C57/bl were acclimated for one week prior to MPTP initiation. During acclimation and throughout the entire study duration, animals were housed within a limited access rodent facility and kept in groups of maximum 5 mice in polypropylene cages (23×17×14 cm), fitted with solid bottoms and filled with wood shavings as bedding material. Animals were provided ad libitum a commercial rodent diet and free access to drinking water, supplied to each cage via polyethylene bottles with stainless steel sipper tubes. […]
Immunohistochemistry staining was performed using Rabbit anti tyrosin hydroxylase (1:100). […] Quantitative analysis was effected by counting of immunoreactive cells at the widest dimension of the SNpc lateral to the roots of the third cranial nerve separating medial and lateral SNpc at the level of interpreduncular nucleus.

MPTP acute model mice [2] = assay: Experiment 1: open field test, MPTP acute model (AN-490); type: in vivo, C57/BL/6J mice
Protocol: The MPTP neurotoxin was administered on day 0, with 4 IP injections (each injection contained 20 mg/kg, 5 ml/kg) in saline. The various treatments or saline were administered on days 0, 1, 2, 3, 6, 7, 13 and 16. Each group of mice (n=6) was subjected, on days 3, 6, 8 and 16, to the open field test, and the following parameters were scored: the distance moved (FIGS. 2A and 2B), velocity (FIGS. 2C and 2D), time spent immobile (FIGS. 2E and 2F) and time spent in a high level of mobility (FIGS. 2G and 2H; strong mobility) during a period of 20 minutes. FIGS. 2A, 2C, 2E and 2G present the data obtained for the control mice, mice treated with L-DOPA and mice treated with AN-490. FIGS. 2B, 2D, 2F and 2H present the data obtained for control mice or mice treated with MPTP, MPTP with L-DOPA and MPTP with AN-490.
(§1) Acute model: On day 1, C57/BL mice received 4× […] injections of 20 mg/kg MPTP-HCl (Sigma), dissolved in saline solution, at 2 hours intervals.
The open field test measures behavioral responses, locomotor activity, hyperactivity, and exploratory behaviors. Open field test is also used as a measure of anxiety. Mice tend to avoid brightly illuminated, novel, open spaces, so the open field environment acts as an anxiogenic stimulus and allows for measurement of anxiety-induced locomotor activity and exploratory behaviors. The apparatus for the open field test is a square (0.5×0.5 meter) made of white melamine. All activities were recorded by a video camera mounted above the open field and scored in real-time by a motion-recognition software package (Noldus, Holland) that detects and analyzes the movements of the animals. The video image of the open field arena was partitioned into equal-size squares zone. Total distance, average speed, rearing/elongation behavior, and time spent in various parts of the field (e.g. the border areas vs. mid-area) were measured. Testing was carried out in a temperature, noise and light controlled room.

[3] = test system: MPTP sub-acute model mice; assay: Experiment 2: observed vitality signs (level of motion, fur appearance), MPTP sub-acute model; type: in vivo, C57/BL/6J mice; conditions: MPTP sub-acute model, per os treatment; as to Fur, observer 1: key: Split fur +; Shiny fur +++; as to Fur, observer 2: key: Split fur +; Shiny fur +++; as to Fur, observer 3: key: Split fur +; Shiny fur +++; as to Fur, observer 4: key: Split fur +; Shiny fur +++; as to Vitality, observer 3: key: slow motions +; normal motion +++; as to Vitality, observer 4: key: slow motions +; normal motion +++
Source text: FIG. […] 6 hereinabove. Six independent observers estimated the level of mice vitality by the level of motion of the mice (light purple, marked vitality) and fur appearance (dark purple). The results are an average of the observers' reports.

MPTP acute model mice [4] = assay: Experiment 3: RotaRod test, MPTP acute model (BL-1023*); type: in vivo, C57/BL/6J mice; conditions: day 12, after initiation of treatment, per os
Protocol: Mice were administered the following treatments: saline (Control), MPTP+saline (MPTP), MPTP+L-DOPA 30 mg/kg (MPTP+Dopa), MPTP+L-DOPA 30 mg/kg+GABA 18.4 mg/kg (MPTP+G+D) MPTP+BL1023* 48.4 mg/kg (MPTP+1023 30) and MPTP+BL-1023* 24.2 mg/kg (MPTP+BL1023 15). The MPTP neurotoxin was administered on day 0, with 4 IP injections (each injection contained 20 mg/kg, 5 ml/kg) in saline. The various treatments or saline were administered on day 7, 9, 11 and 13 (total of 4 treatments). Each group of mice (n=10) was subjected to the RotaRod test, on day 6 (before initiation of treatment, FIG. 9A) and day 12 (after initiation of treatment, FIG. 9B) and the observed average duration on Rod, tested three times, are presented.
as §1
RotoRod Test: The test measures and records motor coordination of rats and mice using the natural fear of falling motivation. RotoRod (San Diego Industries, San Diego, Calif., USA) was set on 16 rpm speed and accelerated to maximum speed of 25 rpm. The time until the mouse fall was measured up to maximum 4 minutes. The measurements were performed three times for each mouse and the average was calculated. […] When the animal falls from the rotating rod, the photo beams were broken and the Rota-Rod recorded the animal's latency to fall. […]

[5] = 0.16 ionic strength and 25° C.; cited from earlier work

N[C@@H](Cc1ccc(O)c(O)c1)C(=O)O [L-DOPA, 3,4-dihydroxy-L-phenylalanine]
Number of TH Cells [1]: 39
motility / motor activity in open field (MPTP acute model mice [2]; MPTP treated mice, L-DOPA 25 mg/kg or AN-490 67.5 mg/kg by oral gavage, days 3, 6, 8, 16): lower the motility
motility in open field (distance moved, velocity, strong mobility, immobility) (MPTP acute model mice [2]; mice not treated with MPTP, L-DOPA 25 mg/kg per os, vs naïve mice or equimolar AN-490): tendency toward increase in motility
Fur, observer 1 [3]: +++
Fur, observer 2 [3]: +++
Fur, observer 3 [3]: +++
Fur, observer 4 [3]: +++
Vitality, observer 3 [3]: +++
Vitality, observer 4 [3]: +++
latency in the rotarod test shortened by MPTP (MPTP acute model mice [4]): not attenuated
pKNH3 [5]: 9.42
pKOH [5]: 8.97
